Test results published in patent publication US20250206724A1, “SUBSTITUTED 3-AMINO INDAZOLE DERIVATIVES AS KINASE INHIBITORS” (NERVIANO MEDICAL SCIENCES S.R.L., priority 2022, published 2025).
Structures can show the parent of a compound that is named as a salt.

Molecular target: T1, CDK11A (Homo sapiens, UniProt Q9UQ88)
T1 sequence (Q9UQ88 346-783): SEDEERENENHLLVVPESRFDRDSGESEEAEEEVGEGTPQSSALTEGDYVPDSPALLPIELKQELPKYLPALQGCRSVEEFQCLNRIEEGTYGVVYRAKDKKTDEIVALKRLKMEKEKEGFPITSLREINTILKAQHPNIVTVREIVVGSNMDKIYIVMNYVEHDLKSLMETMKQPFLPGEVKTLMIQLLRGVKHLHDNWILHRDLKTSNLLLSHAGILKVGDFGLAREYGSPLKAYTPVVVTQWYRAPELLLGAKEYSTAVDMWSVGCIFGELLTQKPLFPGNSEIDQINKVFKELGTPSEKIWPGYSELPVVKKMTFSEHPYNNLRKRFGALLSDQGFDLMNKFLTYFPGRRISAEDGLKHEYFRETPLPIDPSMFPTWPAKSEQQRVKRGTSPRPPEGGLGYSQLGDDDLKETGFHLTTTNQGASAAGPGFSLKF
Details: displacement of SNS-032-Atto590 probe (0.002 μM) from CDK11A-p58 (0.032 uM), fluorescence polarization
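Further: compound preincubated 30 min with CDK11A-p58, then probe added and polarization (mP) read 15 min later, 0% displacement is probe plus enzyme, 100% is probe alone.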
Method: Biochemical Kinase Inhibition Assay on CDK11 in Displacement Assay Format
Displacement Assay Format
Fluorescence Polarization (FP) experiments were carried out at room temperature using no-binding black 384-well microplates (Corning, NY), in 50 mM Tris HCl, pH 8, 10 mM MgCl2, 1 mM DTT, 1 mM CHAPS in a final volume of 60 μl. The plate reader was the Pherastar microplate reader (BMG). Polarization values were read using excitation and emission wavelengths of 590 and 675 nm, respectively. All FP values are expressed as mP units.
Compounds were 4-folds serially diluted in 100% DMSO and added directly to the CDK11A-p58 solution using the pin tool (V & P Scientific): 0.2 ul of the different compound concentrations in 20 ul of enzyme solution. After an incubation of 30 minutes at r.t., 40 ul of probe solution were added. […] The Pherastar reading is performed after 15 minutes of all components incubation. For each assay, high controls (equivalent to 0% displacement) contain probe, CDK11A-p58, and 0.33% DMSO, whereas low controls (equivalent to 100% displacement) contain only probe and 0.33% DMSO. Controls are used for the Z′ and signal to background evaluation.
The data per each molecule are analyzed by Prism SW or an internally customized version of the SW package “Assay Explorer” which provides sigmoidal fittings of the ten-dilution curves for DC50 determination using a 4 parameters logistic equation:
where x is the logarithm of the inhibitor concentration, y is the response; y starts at bottom and goes to top with a sigmoid shape.

Structure (SMILES) | DC50 [nM]
O=C(Nc1n[nH]c2ccc(-c3cc(-c4nnco4)ccc3Cl)cc12)[C@@H]1CCCNC1 [cpd 59, (3R)-N-{5-[2-Chloro-5-(1,3,4-oxadiazol-2-yl)phenyl]-1H-indazol-3-yl}piperidine-3-carboxamide trifluoroacetate] | 57
CN1CCC(C(=O)Nc2n[nH]c3ccc(-c4c(F)cc(O)cc4F)cc23)CC1 [compound 138, N-[5-(2,6-Difluoro-4-hydroxyphenyl)-1H-indazol-3-yl]-1-methylpiperidine-4-carboxamide trifluoroacetate] | 376
N#Cc1ccc(Cl)c(-c2ccc3[nH]nc(NC(=O)[C@H]4CCC5(CCCC5)NC4)c3c2)c1 (single isomer, unassigned) [compound 205, (8-)-N-[5-(2-Chloro-5-cyanophenyl)-1H-indazol-3-yl]-6-azaspiro[4.5]decane-8-carboxamide hydrochloride] | 278
O=C(C[C@@H]1CCCN1)Nc1n[nH]c2ccc(-c3c(Cl)cccc3Cl)cc12 [compound 162, N-[5-(2,6-Dichlorophenyl)-1H-indazol-3-yl]-2-[(2S)-pyrrolidin-2-yl]acetamide hydrochloride] | 792
COC(=O)c1cc(-c2ccc3[nH]nc(NC(=O)[C@@H]4CCNC4)c3c2)c(Cl)cc1N [cpd 54, Methyl 2-amino-4-chloro-5-(3-{[(3R)-pyrrolidin-3-ylcarbonyl]amino}-1H-indazol-5-yl)benzoate dihydrochloride] | 102
CN1CCC(C(=O)Nc2n[nH]c3ccc(-c4ccc(F)c(F)c4F)cc23)CC1 [compound 128, 1-Methyl-N-[5-(2,3,4-trifluorophenyl)-1H-indazol-3-yl]piperidine-4-carboxamide hydrochloride] | 468
CC(OC(=O)C(C)C)OC(=O)N1CCC[C@@H](C(=O)Nc2n[nH]c3ccc(-c4cc(C#N)ccc4Cl)cc23)C1 (stereo partly drawn) [compound 190, 1-[(2-Methylpropanoyl)oxy]ethyl (3R)-3-{[5-(2-chloro-5-cyanophenyl)-1H-indazol-3-yl]carbamoyl}piperidine-1-carboxylate] | 706
CCC(=O)c1ccc(Cl)c(-c2ccc3[nH]nc(NC(=O)[C@@H]4CCCNC4)c3c2)c1 [cpd 43, (3R)-N-[5-(2-Chloro-5-propanoylphenyl)-1H-indazol-3-yl]piperidine-3-carboxamide hydrochloride] | 19
N#Cc1ccc(Cl)c(-c2ccc3[nH]nc(NC(=O)C4CN5CCC4CC5)c3c2)c1 (centres unmarked) [compound 188, N-[5-(2-Chloro-5-cyanophenyl)-1H-indazol-3-yl]-1-azabicyclo[2.2.2]octane-3-carboxamide hydrochloride] | 275
CNC(=O)c1ccc(C#N)c(-c2ccc3[nH]nc(NC(=O)[C@@H]4CCCNC4)c3c2)c1 [cpd 55, (3R)-N-{5-[2-Cyano-5-(methylcarbamoyl)phenyl]-1H-indazol-3-yl}piperidine-3-carboxamide hydrochloride] | 90
N#Cc1ccc(Cl)c(-c2ccc3[nH]nc(NC(=O)C4CC(NC5CCC5)C4)c3c2)c1 (centres unmarked) [compound 153, N-[5-(2-Chloro-5-cyanophenyl)-1H-indazol-3-yl]-3-(cyclobutylamino)cyclobutanecarboxamide hydrochloride] | 41
O=C1CCC(C(=O)Nc2n[nH]c3ccc(-c4c(Cl)cccc4Cl)cc23)CN1 (centres unmarked) [cpd 27, N-[5-(2,6-Dichlorophenyl)-1H-indazol-3-yl]-6-oxopiperidine-3-carboxamide] | 338
CCCCN1CCC(C(=O)Nc2n[nH]c3ccc(-c4cc(C#N)ccc4Cl)cc23)CC1 [compound 140, 1-Butyl-N-[5-(2-chloro-5-cyanophenyl)-1H-indazol-3-yl]piperidine-4-carboxamide hydrochloride] | 68
O=C(Nc1n[nH]c2ccc(-c3ccccc3)cc12)[C@@H]1CCCNC1 [cpd 49, (3R)-N-(5-Phenyl-1H-indazol-3-yl)piperidine-3-carboxamide hydrochloride] | 78
CN1CCC(C(=O)Nc2n[nH]c3ccc(-c4ccc(F)cc4F)cc23)CC1 [compound 124, N-[5-(2,4-Difluorophenyl)-1H-indazol-3-yl]-1-methylpiperidine-4-carboxamide hydrochloride] | 637
Cc1ccc(-c2ccc3[nH]nc(NC(=O)[C@@H]4CCCNC4)c3c2)c(Cl)c1 [cpd 8, (3R)-N-[5-(2-Chloro-4-methylphenyl)-1H-indazol-3-yl]piperidine-3-carboxamide hydrochloride] | 125
N#Cc1ccc(Cl)c(-c2ccc3[nH]nc(NC(=O)[C@H]4CCCNC4)c3c2)c1 [compound 181, (3S)-N-[5-(2-Chloro-5-cyanophenyl)-1H-indazol-3-yl]piperidine-3-carboxamide hydrochloride] | 64
CNC1CC(C(=O)Nc2n[nH]c3ccc(-c4cc(C#N)ccc4Cl)cc23)C1 (centres unmarked) [compound 146, N-[5-(2-Chloro-5-cyanophenyl)-1H-indazol-3-yl]-3-(methylamino)cyclobutanecarboxamide hydrochloride] | 23
COC(=O)c1ccc(Cl)c(-c2ccc3[nH]nc(NC(=O)[C@@H]4CCCNC4)c3c2)c1 [cpd 29, Methyl 4-chloro-3-(3-{[(3R)-piperidin-3-ylcarbonyl]amino}-1H-indazol-5-yl)benzoate hydrochloride] | 24
O=C(Nc1n[nH]c2ccc(-c3ccc(O)cc3Cl)cc12)C1CCCNC1 (centres unmarked) [cpd 3, N-[5-(2-Chloro-4-hydroxyphenyl)-1H-indazol-3-yl]piperidine-3-carboxamide hydrochloride] | 51
Cc1ccc(-c2ccc3[nH]nc(NC(=O)C4CCN(C)CC4)c3c2)c(F)c1F [compound 132, N-[5-(2,3-Difluoro-4-methylphenyl)-1H-indazol-3-yl]-1-methylpiperidine-4-carboxamide hydrochloride] | 409
O=C(Nc1n[nH]c2ccc(-c3cc(OC(F)(F)F)ccc3F)cc12)[C@@H]1CCCNC1 [cpd 23, (3R)-N-{5-[2-Fluoro-5-(trifluoromethoxy)phenyl]-1H-indazol-3-yl}piperidine-3-carboxamide hydrochloride] | 75
O=C(Nc1n[nH]c2ccc(-c3cc(F)ccc3Cl)cc12)[C@@H]1CCCNC1 [cpd 52, (3R)-N-[5-(2-Chloro-5-fluorophenyl)-1H-indazol-3-yl]piperidine-3-carboxamide hydrochloride] | 42

The next lines start with the values.

DC50 [nM] | Structure (SMILES)
308 | CN1CCC(C(=O)Nc2n[nH]c3ccc(-c4ccccc4F)cc23)CC1 [cpd 78, N-[5-(2-Fluorophenyl)-1H-indazol-3-yl]-1-methylpiperidine-4-carboxamide hydrochloride]
163 | Cc1nc(-c2ccc(Cl)c(-c3ccc4[nH]nc(NC(=O)[C@@H]5CCCNC5)c4c3)c2)no1 [cpd 60, (3R)-N-{5-[2-Chloro-5-(5-methyl-1,2,4-oxadiazol-3-yl)phenyl]-1H-indazol-3-yl}piperidine-3-carboxamide dihydrochloride]
784 | CN1CCC(C(=O)Nc2n[nH]c3ccc(-c4cccc(C#N)c4)cc23)CC1 [cpd 89, N-[5-(3-Cyanophenyl)-1H-indazol-3-yl]-1-methylpiperidine-4-carboxamide hydrochloride]
166 | Cc1ccc(Cl)c(-c2ccc3[nH]nc(NC(=O)C4CCN(C)CC4)c3c2)c1F [cpd 72, N-[5-(6-Chloro-2-fluoro-3-methylphenyl)-1H-indazol-3-yl]-1-methylpiperidine-4-carboxamide hydrochloride]
151 | COCC(C)N1CCC(C(=O)Nc2n[nH]c3ccc(-c4c(F)cccc4Cl)cc23)CC1 (centres unmarked) [cpd 67, N-[5-(2-Chloro-6-fluorophenyl)-1H-indazol-3-yl]-1-(1-methoxypropan-2-yl)piperidine-4-carboxamide hydrochloride]
141 | CN1CCC(C(=O)Nc2n[nH]c3ccc(-c4ccc(O)cc4Cl)cc23)CC1 [cpd 111, N-[5-(2-Chloro-4-hydroxyphenyl)-1H-indazol-3-yl]-1-methylpiperidine-4-carboxamide hydrochloride]
476 | Cc1ccc(F)c(-c2ccc3[nH]nc(NC(=O)C4CCN(C)CC4)c3c2)c1Cl [cpd 73, N-[5-(2-Chloro-6-fluoro-3-methylphenyl)-1H-indazol-3-yl]-1-methylpiperidine-4-carboxamide hydrochloride]
467 | CN1CCC(C(=O)Nc2n[nH]c3ccc(-c4ccc(C=O)cc4F)cc23)CC1 [cpd 118, N-[5-(2-Fluoro-4-formylphenyl)-1H-indazol-3-yl]-1-methylpiperidine-4-carboxamide hydrochloride]
967 | CN1CCC(C(=O)Nc2n[nH]c3ccc(-c4ccc(C(N)=O)cc4)cc23)CC1 [cpd 109, N-[5-(4-Carbamoylphenyl)-1H-indazol-3-yl]-1-methylpiperidine-4-carboxamide hydrochloride]
799 | CN1CCC(C(=O)Nc2n[nH]c3ccc(-c4ccc(S(N)(=O)=O)cc4)cc23)CC1 [cpd 92, 1-Methyl-N-[5-(4-sulfamoylphenyl)-1H-indazol-3-yl]piperidine-4-carboxamide hydrochloride]
150 | CN1CCC(C(=O)Nc2n[nH]c3ccc(-c4c(Cl)cc(Cl)cc4Cl)cc23)CC1 [cpd 108, 1-Methyl-N-[5-(2,4,6-trichlorophenyl)-1H-indazol-3-yl]piperidine-4-carboxamide hydrochloride]
148 | CN(C)C1CC(C(=O)Nc2n[nH]c3ccc(-c4ccc(O)cc4Cl)cc23)C1 (centres unmarked) [cpd 62, N-[5-(2-Chloro-4-hydroxyphenyl)-1H-indazol-3-yl]-3-(dimethylamino)cyclobutanecarboxamide hydrochloride]
